Laboratory results published in PMC10174618, “Monoterpenoid aryl hydrocarbon receptor allosteric antagonists protect against ultraviolet skin damage in female mice” (Nature Communications, 2023).

How the values were obtained:
Experiment in all cases: biochemical
Set-up in all cases: KINOMEscan scanMAX active site-directed competition binding assay, percent of control, 468 kinases
Settings in all cases: competition binding, percent of control
[1] = biological target: T1, ABL1(H396P)-nonphosphorylated (Homo sapiens, UniProt P00519, H396P)
T1 construct: nonphosphorylated
How it was run: (§1)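 Single-concentration screen (100 μM S-carvone) in a competition binding panel of 468 human kinases (KINOMEscan scanMAX); results given as percent of control, hit cutoff 35%.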

[2] = biological target: T2, MRCKA (Homo sapiens, UniProt Q5VT25)
T2 construct: gene CDC42BPA
How it was run: as §1

[3] = biological target: T3, PCTK2 (Homo sapiens, UniProt Q00537)
T3 construct: gene CDK17
How it was run: as §1

[4] = biological target: EPHA1 (Homo sapiens, UniProt P21709)
How it was run: as §1

[5] = biological target: PDPK1 (Homo sapiens, UniProt O15530)
How it was run: as §1

[6] = biological target: AURKA (Homo sapiens, UniProt O14965)
How it was run: as §1

[7] = biological target: T4, p38-alpha (Homo sapiens, UniProt Q16539)
T4 construct: gene MAPK14
How it was run: as §1

[8] = biological target: T5, ABL1-phosphorylated (Homo sapiens, UniProt P00519)
T5 construct: phosphorylated
How it was run: as §1

[9] = biological target: NEK10 (Homo sapiens, UniProt Q6ZWH5)
How it was run: as §1

[10] = biological target: PIKFYVE (Homo sapiens, UniProt Q9Y2I7)
How it was run: as §1

[11] = biological target: T6, RSK4(Kin.Dom.1-N-terminal) (Homo sapiens, UniProt Q9UK32)
T6 construct: gene RPS6KA6; Kin.Dom.1-N-terminal
How it was run: as §1

[12] = biological target: TESK1 (Homo sapiens, UniProt Q15569)
How it was run: as §1

[13] = biological target: BMPR1B (Homo sapiens, UniProt O00238)
How it was run: as §1

[14] = biological target: EPHA5 (Homo sapiens, UniProt P54756)
How it was run: as §1

[15] = biological target: FGR (Homo sapiens, UniProt P09769)
How it was run: as §1

[16] = biological target: T7, JAK3(JH1domain-catalytic) (Homo sapiens, UniProt P52333)
T7 construct: JH1domain-catalytic
How it was run: as §1

[17] = biological target: T8, ABL1(F317L)-phosphorylated (Homo sapiens, UniProt P00519, F317L)
T8 construct: phosphorylated
How it was run: as §1

[18] = biological target: TLK1 (Homo sapiens, UniProt Q9UKI8)
How it was run: as §1

[19] = biological target: LATS1 (Homo sapiens, UniProt O95835)
How it was run: as §1

[20] = biological target: MAP3K4 (Homo sapiens, UniProt Q9Y6R4)
How it was run: as §1

[21] = biological target: DMPK (Homo sapiens, UniProt Q09013)
How it was run: as §1

T7 sequence (P52333 whole entry): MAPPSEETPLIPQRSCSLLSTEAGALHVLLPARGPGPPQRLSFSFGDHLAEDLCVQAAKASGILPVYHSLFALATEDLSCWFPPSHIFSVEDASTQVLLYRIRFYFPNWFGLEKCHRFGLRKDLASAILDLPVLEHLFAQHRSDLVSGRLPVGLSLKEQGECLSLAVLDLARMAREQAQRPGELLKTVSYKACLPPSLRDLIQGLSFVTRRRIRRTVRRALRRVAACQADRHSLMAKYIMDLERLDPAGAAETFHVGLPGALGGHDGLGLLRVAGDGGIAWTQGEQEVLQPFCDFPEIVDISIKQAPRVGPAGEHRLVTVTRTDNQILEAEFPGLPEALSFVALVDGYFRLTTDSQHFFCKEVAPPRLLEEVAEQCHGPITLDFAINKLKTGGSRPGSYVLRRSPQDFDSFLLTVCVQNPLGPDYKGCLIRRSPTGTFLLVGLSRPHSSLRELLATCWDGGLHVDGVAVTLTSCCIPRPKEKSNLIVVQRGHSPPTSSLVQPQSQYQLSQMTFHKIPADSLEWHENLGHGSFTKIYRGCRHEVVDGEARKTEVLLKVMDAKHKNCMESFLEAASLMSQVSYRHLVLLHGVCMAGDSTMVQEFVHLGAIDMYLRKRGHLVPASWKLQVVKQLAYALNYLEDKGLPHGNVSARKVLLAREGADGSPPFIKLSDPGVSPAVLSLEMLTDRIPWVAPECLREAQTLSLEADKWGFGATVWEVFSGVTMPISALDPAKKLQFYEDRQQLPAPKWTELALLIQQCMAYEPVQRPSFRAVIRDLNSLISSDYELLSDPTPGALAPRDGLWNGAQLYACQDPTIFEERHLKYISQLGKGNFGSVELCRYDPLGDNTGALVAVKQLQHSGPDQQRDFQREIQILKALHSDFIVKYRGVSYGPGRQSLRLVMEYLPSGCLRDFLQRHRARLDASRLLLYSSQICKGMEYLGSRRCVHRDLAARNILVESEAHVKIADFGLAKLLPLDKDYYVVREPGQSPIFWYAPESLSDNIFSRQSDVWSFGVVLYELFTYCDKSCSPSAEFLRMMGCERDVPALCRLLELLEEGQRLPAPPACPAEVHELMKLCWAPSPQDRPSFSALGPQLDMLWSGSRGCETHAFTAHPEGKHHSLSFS
Chain of FGR (P09769 whole entry): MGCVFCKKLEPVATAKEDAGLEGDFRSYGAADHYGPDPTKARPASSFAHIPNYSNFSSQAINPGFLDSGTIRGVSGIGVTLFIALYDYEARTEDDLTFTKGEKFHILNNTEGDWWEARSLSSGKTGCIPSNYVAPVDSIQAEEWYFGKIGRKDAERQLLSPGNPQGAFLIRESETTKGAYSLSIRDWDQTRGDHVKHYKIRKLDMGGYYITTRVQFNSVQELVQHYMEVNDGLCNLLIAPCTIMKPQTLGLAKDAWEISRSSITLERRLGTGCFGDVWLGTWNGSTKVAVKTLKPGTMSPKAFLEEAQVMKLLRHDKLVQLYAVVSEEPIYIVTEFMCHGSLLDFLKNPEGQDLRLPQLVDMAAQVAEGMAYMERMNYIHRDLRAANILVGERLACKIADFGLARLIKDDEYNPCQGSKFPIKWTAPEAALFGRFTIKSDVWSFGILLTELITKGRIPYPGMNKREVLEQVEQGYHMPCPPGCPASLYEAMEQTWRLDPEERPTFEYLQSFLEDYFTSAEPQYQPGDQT
Chain of BMPR1B (O00238 whole entry): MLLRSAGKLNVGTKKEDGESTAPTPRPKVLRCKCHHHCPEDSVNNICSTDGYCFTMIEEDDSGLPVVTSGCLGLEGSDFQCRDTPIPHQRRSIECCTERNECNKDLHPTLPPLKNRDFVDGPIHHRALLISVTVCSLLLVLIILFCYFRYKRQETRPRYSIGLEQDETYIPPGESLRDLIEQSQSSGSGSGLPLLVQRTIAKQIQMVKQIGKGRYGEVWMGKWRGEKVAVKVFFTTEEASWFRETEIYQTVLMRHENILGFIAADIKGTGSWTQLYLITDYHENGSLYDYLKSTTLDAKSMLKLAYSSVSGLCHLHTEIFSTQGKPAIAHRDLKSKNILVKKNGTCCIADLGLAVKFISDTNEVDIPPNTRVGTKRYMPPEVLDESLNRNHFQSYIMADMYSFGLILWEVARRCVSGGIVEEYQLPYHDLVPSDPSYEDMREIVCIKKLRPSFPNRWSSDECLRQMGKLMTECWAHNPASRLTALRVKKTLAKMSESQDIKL
T6 sequence (Q9UK32 whole entry): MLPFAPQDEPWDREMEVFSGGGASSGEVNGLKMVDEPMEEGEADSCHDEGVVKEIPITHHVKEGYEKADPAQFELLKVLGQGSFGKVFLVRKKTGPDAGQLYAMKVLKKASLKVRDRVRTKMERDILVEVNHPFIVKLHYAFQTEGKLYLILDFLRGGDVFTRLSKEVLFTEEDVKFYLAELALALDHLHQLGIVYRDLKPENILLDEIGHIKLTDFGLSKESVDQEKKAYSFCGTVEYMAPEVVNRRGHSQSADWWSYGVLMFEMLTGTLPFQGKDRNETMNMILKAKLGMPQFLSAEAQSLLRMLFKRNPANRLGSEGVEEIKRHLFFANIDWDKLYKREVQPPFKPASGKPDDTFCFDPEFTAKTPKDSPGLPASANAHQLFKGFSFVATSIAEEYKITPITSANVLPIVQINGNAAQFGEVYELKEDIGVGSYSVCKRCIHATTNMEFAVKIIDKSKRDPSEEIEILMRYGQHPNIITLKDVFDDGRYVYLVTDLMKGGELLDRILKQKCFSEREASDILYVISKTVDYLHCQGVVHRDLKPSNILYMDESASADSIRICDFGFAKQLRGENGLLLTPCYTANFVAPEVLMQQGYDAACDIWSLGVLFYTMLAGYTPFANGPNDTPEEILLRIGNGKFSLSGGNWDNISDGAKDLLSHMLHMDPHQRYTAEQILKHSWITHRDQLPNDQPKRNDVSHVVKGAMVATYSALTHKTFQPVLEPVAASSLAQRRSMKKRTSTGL
Chain of EPHA1 (P21709 whole entry): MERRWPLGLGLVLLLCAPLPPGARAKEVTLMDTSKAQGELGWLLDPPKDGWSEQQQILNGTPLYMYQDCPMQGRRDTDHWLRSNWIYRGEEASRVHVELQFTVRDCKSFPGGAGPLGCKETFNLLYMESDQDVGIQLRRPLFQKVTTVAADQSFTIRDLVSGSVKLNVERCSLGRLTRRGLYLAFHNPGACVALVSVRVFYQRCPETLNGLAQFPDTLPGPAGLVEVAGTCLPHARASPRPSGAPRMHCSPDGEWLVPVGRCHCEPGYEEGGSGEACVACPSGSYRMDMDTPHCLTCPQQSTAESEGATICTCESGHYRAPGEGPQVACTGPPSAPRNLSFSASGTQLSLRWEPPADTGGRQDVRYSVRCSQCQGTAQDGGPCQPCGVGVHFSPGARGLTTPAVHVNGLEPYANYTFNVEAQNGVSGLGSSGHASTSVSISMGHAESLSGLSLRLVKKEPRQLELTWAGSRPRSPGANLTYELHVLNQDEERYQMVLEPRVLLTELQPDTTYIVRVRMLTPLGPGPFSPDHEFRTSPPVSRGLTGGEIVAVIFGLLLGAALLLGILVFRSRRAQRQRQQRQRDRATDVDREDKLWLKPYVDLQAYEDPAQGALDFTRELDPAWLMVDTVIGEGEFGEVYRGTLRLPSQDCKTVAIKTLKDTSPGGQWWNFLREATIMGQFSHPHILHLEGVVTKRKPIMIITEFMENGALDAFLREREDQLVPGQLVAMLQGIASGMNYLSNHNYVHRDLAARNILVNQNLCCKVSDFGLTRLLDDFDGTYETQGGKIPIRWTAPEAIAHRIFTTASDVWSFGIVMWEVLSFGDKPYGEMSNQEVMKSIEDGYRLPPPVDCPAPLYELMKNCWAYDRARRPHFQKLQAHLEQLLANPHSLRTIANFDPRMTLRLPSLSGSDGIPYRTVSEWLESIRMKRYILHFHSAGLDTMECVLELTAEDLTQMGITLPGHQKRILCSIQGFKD
T4 sequence (Q16539 whole entry): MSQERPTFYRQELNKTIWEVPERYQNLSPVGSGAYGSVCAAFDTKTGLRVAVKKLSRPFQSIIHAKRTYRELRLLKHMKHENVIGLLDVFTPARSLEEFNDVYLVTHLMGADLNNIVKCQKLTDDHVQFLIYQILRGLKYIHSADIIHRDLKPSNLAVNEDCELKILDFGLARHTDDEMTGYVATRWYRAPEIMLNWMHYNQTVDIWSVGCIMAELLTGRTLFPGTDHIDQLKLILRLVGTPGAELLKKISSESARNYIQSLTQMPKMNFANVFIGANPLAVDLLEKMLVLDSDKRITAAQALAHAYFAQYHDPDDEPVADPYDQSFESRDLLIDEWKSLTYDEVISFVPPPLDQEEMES
Chain of TLK1 (Q9UKI8 whole entry): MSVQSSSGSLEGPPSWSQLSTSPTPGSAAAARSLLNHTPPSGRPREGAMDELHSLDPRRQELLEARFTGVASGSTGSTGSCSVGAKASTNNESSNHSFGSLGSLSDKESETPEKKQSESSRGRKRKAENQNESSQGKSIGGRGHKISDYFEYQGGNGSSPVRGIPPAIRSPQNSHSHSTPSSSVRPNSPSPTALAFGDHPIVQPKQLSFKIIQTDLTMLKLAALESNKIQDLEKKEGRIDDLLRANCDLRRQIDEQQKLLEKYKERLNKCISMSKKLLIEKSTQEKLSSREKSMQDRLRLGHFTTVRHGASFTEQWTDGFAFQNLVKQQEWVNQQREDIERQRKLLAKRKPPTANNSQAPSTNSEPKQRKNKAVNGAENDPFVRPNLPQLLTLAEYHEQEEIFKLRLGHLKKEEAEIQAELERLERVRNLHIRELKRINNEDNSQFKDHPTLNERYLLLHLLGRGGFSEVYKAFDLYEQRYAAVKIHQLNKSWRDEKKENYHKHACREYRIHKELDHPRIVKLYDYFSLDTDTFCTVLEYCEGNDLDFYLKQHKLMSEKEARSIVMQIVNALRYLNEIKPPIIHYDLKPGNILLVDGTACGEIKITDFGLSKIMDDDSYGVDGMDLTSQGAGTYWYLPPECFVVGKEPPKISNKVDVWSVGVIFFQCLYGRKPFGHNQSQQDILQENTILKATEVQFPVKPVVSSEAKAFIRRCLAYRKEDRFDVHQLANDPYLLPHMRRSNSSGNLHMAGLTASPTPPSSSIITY

C=C(C)[C@H]1CC=C(C)C(=O)C1 [S-carvone]
remaining binding at 100 µM [1]: 82% | remaining binding at 100 µM [2]: 80% | remaining binding at 100 µM [3]: 97% | remaining binding at 100 µM [4]: 82% | remaining binding at 100 µM [5]: 74% | remaining binding at 100 µM [6]: 81% | remaining binding at 100 µM [7]: 100% | remaining binding at 100 µM [8]: 73% | remaining binding at 100 µM [9]: 71% | remaining binding at 100 µM [10]: 100% | remaining binding at 100 µM [11]: 63% | remaining binding at 100 µM [12]: 79% | remaining binding at 100 µM [13]: 74% | remaining binding at 100 µM [14]: 61% | remaining binding at 100 µM [15]: 57% | remaining binding at 100 µM [16]: 90% | remaining binding at 100 µM [17]: 93% | remaining binding at 100 µM [18]: 59% | remaining binding at 100 µM [19]: 91% | remaining binding at 100 µM [20]: 79% | remaining binding at 100 µM [21]: 94%
